Source: patent US20130164384A1, “METHODS OF TREATING BOWEL DISEASES BY ADMINISTERING A BOWEL CLEANSER AND AN ANTIBIOTIC” (Salix Pharmaceuticals, Ltd., priority 2008, published 2013)

Test system: subjects with dIBS
Assay: Study of three rifaximin doses in subjects with dIBS: adequate relief of IBS symptoms and bloating
Format: in vivo, human
Conditions: for Treatment effect (Bloating) / Treatment effect (IBS Sx): matches RFX 550 2 w minus PBO success rate; for Adequate Relief of Bloating: Failure / Adequate Relief of Bloating: Success / Adequate Relief of IBS Symptoms: Failure / Adequate Relief of IBS Symptoms: Success: end of treatment phase
Description: This example relates to a study of three rifaximin doses in subjects with dIBS. Subjects were randomized to receive daily BID doses of rifaximin 275 mg, 550 mg, or 1100 mg for 14 days. A fifth group of subjects received rifaximin 550 mg BID for a period of 28 days. Subjects were questioned on the relief of overall IBS symptoms and bloating. […] The analyses defined success as a “yes” response to questions regarding adequate relief of SGA or IBS-B in at least 2 out of the final 3 weeks of the double-blind treatment period.
Baseline severity was determined using 7-point Lickert scales during screening for Abdominal Pain/Discomfort and Bloating, and the number, type (normal, hard, loose) and urgency of bowel movements.
Duration of effect was assessed in a 12 week follow-up period. Subjects that responded in the 4 week double-blind treatment period were followed for an additional 3 months. Fifty-three (53) subjects from the 550 mg 2 w and 59 subjects from the placebo-treated groups participated in this study phase.
Subjects recorded the following information on dIBS symptoms daily throughout the duration of the study: • Number of normal stools/day; • Number of hard and lumpy stools/day; • Number of loose or watery stools/day; • Number of loose or watery stools/day with the symptom of urgency; • How bothersome is abdominal pain and discomfort? [7-point response scale: 0 (not at all) to 6 (a very great deal)]; • How bothersome is bloating? [(7-point response scale: 0 (not at all) to 6 (a very great deal)].
Weekly summary variables were computed by averaging the recorded values over all pre-treatment days or over the seven days preceding the time point of interest for post-treatment assessments. For example, baseline included Days −10 to 0, Week 1 included Days 1 to 7, Week 2 included Days 8 to 14, and so forth through Week 16. Changes from baseline variables were computed for each weekly summary score.

[1] = 550 mg BID for 2 weeks, success = yes in at least 2 of final 3 weeks
[2] = GI Cleanser Prior to Rifaximin Administration: N
[3] = GI Cleanser Prior to Rifaximin Administration: Y
[4] = RFX 275 2 w (275 mg BID 14 days), Had a Screening Colonoscopy: No
[5] = RFX 275 2 w (275 mg BID 14 days), Had a Screening Colonoscopy: Yes
[6] = RFX 275 2 w (275 mg BID 14 days), Screening Colonoscopy <=26 Days
[7] = RFX 275 2 w (275 mg BID 14 days), Screening Colonoscopy >26 Days
[8] = RFX 275 2 w (275 mg BID 14 days), had screening colonoscopy, Average Abdominal Pain Discomfort Score at Baseline <=4
[9] = RFX 275 2 w (275 mg BID 14 days), had screening colonoscopy, Average Abdominal Pain Discomfort Score at Baseline >4
[10] = RFX 275 2 w (275 mg BID 14 days), had screening colonoscopy, Average Bloating Discomfort Score at Baseline <=4
[11] = RFX 275 2 w (275 mg BID 14 days), had screening colonoscopy, Average Bloating Discomfort Score at Baseline >4
[12] = RFX 550 2 w (550 mg BID 14 days), Had a Screening Colonoscopy: No
[13] = RFX 550 2 w (550 mg BID 14 days), Had a Screening Colonoscopy: Yes
[14] = RFX 550 2 w (550 mg BID 14 days), Screening Colonoscopy <=26 Days
[15] = RFX 550 2 w (550 mg BID 14 days), Screening Colonoscopy >26 Days
[16] = RFX 550 2 w (550 mg BID 14 days), had screening colonoscopy, Average Abdominal Pain Discomfort Score at Baseline <=4
[17] = RFX 550 2 w (550 mg BID 14 days), had screening colonoscopy, Average Abdominal Pain Discomfort Score at Baseline >4
[18] = RFX 550 2 w (550 mg BID 14 days), had screening colonoscopy, Average Bloating Discomfort Score at Baseline <=4

For `COC1/C=C/OC2(C)Oc3c(C)c(O)c4c(O)c(c5c(nc6cc(C)ccn65)c4c3C2=O)NC(=O)/C(C)=C\C=C\C(C)C(O)C(C)C(O)C(C)C(OC(C)=O)C1C` [RFX, (2S,16Z,18E,20S,21S,22R,23R,24R,25S,26S,27S,28E)-5,6,21,23,25 Pentahydroxy-27-methoxy-2,4,11,16,20,22,24,26-octamethyl-2,7-(epoxypentadeca-(1,11,13)trienimino)benzofuro(4,5-e)pyrido(1,2,-a)benzimidazole-1,15(2H)-dione,25-acetate], the “Duration of effect (maintaining symptom relief) versus placebo” value (550 mg BID 2 w responders, 12 week follow-up period) was “better chance of maintaining symptom relief”, the “Adequate relief of IBS related symptoms (SGA) compared to placebo” value [1] was “statistically significant relief” and the “Adequate relief of IBS-related bloating (IBS-B) compared to placebo” value [1] was “statistically significant relief”. For the same molecule, the “Treatment effect (Bloating)” value [2] was −0.9%, the “Treatment effect (IBS Sx)” value [2] was 4.7% and the “Treatment effect (Bloating)” value [3] was 13.8%. The “Treatment effect (IBS Sx)” value [3] was 11.6%, the “Adequate Relief of Bloating: Failure” value [4] was 36 (67.9%) n (%) and the “Adequate Relief of Bloating: Success” value [4] was 17 (32.1%) n (%). The “Adequate Relief of IBS Symptoms: Failure” value [4] was 32 (60.4%) n (%), the “Adequate Relief of IBS Symptoms: Success” value [4] was 21 (39.6%) n (%) and the “Adequate Relief of Bloating: Failure” value [5] was 24 (57.1%) n (%). The “Adequate Relief of Bloating: Success” value [5] was 18 (42.9%) n (%), the “Adequate Relief of IBS Symptoms: Failure” value [5] was 23 (54.8%) n (%) and the “Adequate Relief of IBS Symptoms: Success” value [5] was 19 (45.2%) n (%). The “Adequate Relief of Bloating: Failure” value [6] was 10 (55.6%) n (%), the “Adequate Relief of Bloating: Success” value [6] was 8 (44.4%) n (%) and the “Adequate Relief of IBS Symptoms: Failure” value [6] was 11 (61.1%) n (%). For the same molecule, the “Adequate Relief of IBS Symptoms: Success” value [6] was 7 (38.9%) n (%), the “Adequate Relief of Bloating: Failure” value [7] was 14 (58.3%) n (%) and the “Adequate Relief of Bloating: Success” value [7] was 10 (41.7%) n (%). For the same molecule, the “Adequate Relief of IBS Symptoms: Failure” value [7] was 12 (50.0%) n (%), the “Adequate Relief of IBS Symptoms: Success” value [7] was 12 (50.0%) n (%) and the “Adequate Relief of Bloating: Failure” value [8] was 22 (59.5%) n (%). The “Adequate Relief of Bloating: Success” value [8] was 15 (40.5%) n (%), the “Adequate Relief of IBS Symptoms: Failure” value [8] was 21 (56.8%) n (%) and the “Adequate Relief of IBS Symptoms: Success” value [8] was 16 (43.2%) n (%). For the same molecule, the “Adequate Relief of Bloating: Failure” value [9] was 2 (40.0%) n (%), the “Adequate Relief of Bloating: Success” value [9] was 3 (60.0%) n (%) and the “Adequate Relief of IBS Symptoms: Failure” value [9] was 2 (40.0%) n (%). The “Adequate Relief of IBS Symptoms: Success” value [9] was 3 (60.0%) n (%), the “Adequate Relief of Bloating: Failure” value [10] was 22 (59.5%) n (%) and the “Adequate Relief of Bloating: Success” value [10] was 15 (40.5%) n (%). The “Adequate Relief of IBS Symptoms: Failure” value [10] was 21 (56.8%) n (%), the “Adequate Relief of IBS Symptoms: Success” value [10] was 16 (43.2%) n (%) and the “Adequate Relief of Bloating: Failure” value [11] was 2 (40.0%) n (%). The “Adequate Relief of Bloating: Success” value [11] was 3 (60.0%) n (%), the “Adequate Relief of IBS Symptoms: Failure” value [11] was 2 (40.0%) n (%) and the “Adequate Relief of IBS Symptoms: Success” value [11] was 3 (60.0%) n (%). The “Adequate Relief of Bloating: Failure” value [12] was 59 (62.1%) n (%), the “Adequate Relief of Bloating: Success” value [12] was 36 (37.9%) n (%) and the “Adequate Relief of IBS Symptoms: Failure” value [12] was 49 (51.6%) n (%). The “Adequate Relief of IBS Symptoms: Success” value [12] was 46 (48.4%) n (%), the “Adequate Relief of Bloating: Failure” value [13] was 44 (45.8%) n (%) and the “Adequate Relief of Bloating: Success” value [13] was 52 (54.2%) n (%). The “Adequate Relief of IBS Symptoms: Failure” value [13] was 42 (43.8%) n (%), the “Adequate Relief of IBS Symptoms: Success” value [13] was 54 (56.3%) n (%) and the “Adequate Relief of Bloating: Failure” value [14] was 18 (40.9%) n (%). For the same molecule, the “Adequate Relief of Bloating: Success” value [14] was 26 (59.1%) n (%), the “Adequate Relief of IBS Symptoms: Failure” value [14] was 20 (45.5%) n (%) and the “Adequate Relief of IBS Symptoms: Success” value [14] was 24 (54.5%) n (%). The “Adequate Relief of Bloating: Failure” value [15] was 26 (50.0%) n (%), the “Adequate Relief of Bloating: Success” value [15] was 26 (50.0%) n (%) and the “Adequate Relief of IBS Symptoms: Failure” value [15] was 22 (42.3%) n (%). For the same molecule, the “Adequate Relief of IBS Symptoms: Success” value [15] was 30 (57.7%) n (%), the “Adequate Relief of Bloating: Failure” value [16] was 38 (45.8%) n (%) and the “Adequate Relief of Bloating: Success” value [16] was 45 (54.2%) n (%). The “Adequate Relief of IBS Symptoms: Failure” value [16] was 37 (44.6%) n (%), the “Adequate Relief of IBS Symptoms: Success” value [16] was 46 (55.4%) n (%) and the “Adequate Relief of Bloating: Failure” value [17] was 6 (46.2%) n (%). The “Adequate Relief of Bloating: Success” value [17] was 7 (53.8%) n (%), the “Adequate Relief of IBS Symptoms: Failure” value [17] was 5 (38.5%) n (%) and the “Adequate Relief of IBS Symptoms: Success” value [17] was 8 (61.5%) n (%). For the same molecule, the “Adequate Relief of Bloating: Failure” value [18] was 36 (45.0%) n (%), the “Adequate Relief of Bloating: Success” value [18] was 44 (55.0%) n (%) and the “Adequate Relief of IBS Symptoms: Failure” value [18] was 34 (42.5%) n (%). The “Adequate Relief of IBS Symptoms: Success” value [18] was 46 (57.5%) n (%) and the “Adequate Relief of Bloating: Failure” value (RFX 550 2 w (550 mg BID 14 days), had screening colonoscopy, Average Bloating Discomfort Score at Baseline >4) was 8 (50.0%) n (%).
